Assay results: the NIST ThermoML archive (doi:10.1021/je900124n)
Several values for one entry are separate records, joined by “and”; a condition that tells them apart may be missing. Identical values can stand only once.

Conditions: Fluid (supercritical or subcritical phases), Buoyancy - hydrostatic balance with magnetic suspension - two sinkers

CCC [propane]
Conditions	mass density
380 K, 4703.9 kPa	148.078 kg/m3 [middle of 5 runs]
380 K, 4705.6 kPa	148.36 kg/m3 [middle of 4 runs]
380 K, 4705.7 kPa	148.363 kg/m3
380 K, 4755.7 kPa	155.492 kg/m3 [middle of 5 runs]
380 K, 4879.5 kPa	178.216 kg/m3 and 178.213 kg/m3
380 K, 4879.6 kPa	178.236 kg/m3 and 178.204 kg/m3 and 178.214 kg/m3
380 K, 4957.6 kPa	197.127 kg/m3
380 K, 4957.7 kPa	197.117 kg/m3 and 197.11 kg/m3
380 K, 4957.8 kPa	197.115 kg/m3 [middle of 4 runs]
380 K, 4957.9 kPa	197.119 kg/m3
380 K, 5001.3 kPa	208.689 kg/m3
380 K, 5001.5 kPa	208.739 kg/m3
380 K, 5002.2 kPa	208.955 kg/m3 and 208.946 kg/m3 and 208.942 kg/m3
380 K, 5002.3 kPa	208.948 kg/m3 and 208.946 kg/m3
380 K, 5041.6 kPa	219.674 kg/m3 and 219.68 kg/m3 and 219.675 kg/m3
380 K, 5041.7 kPa	219.681 kg/m3 [middle of 4 runs]
380 K, 5067.9 kPa	226.412 kg/m3 and 226.42 kg/m3
380 K, 5068 kPa	226.427 kg/m3
380 K, 5068.1 kPa	226.418 kg/m3
380 K, 5141.5 kPa	243.559 kg/m3 and 243.562 kg/m3 and 243.564 kg/m3
380 K, 5141.6 kPa	243.563 kg/m3 [middle of 5 runs]
380 K, 5268.6 kPa	264.989 kg/m3 and 264.991 kg/m3
380 K, 5268.8 kPa	264.985 kg/m3 and 264.995 kg/m3
380 K, 5408.3 kPa	280.991 kg/m3 [middle of 4 runs]
380 K, 5408.4 kPa	280.991 kg/m3 and 280.992 kg/m3 and 280.986 kg/m3
380 K, 6684.1 kPa	336.97 kg/m3 and 336.962 kg/m3
380 K, 6684.2 kPa	336.972 kg/m3
380 K, 6684.3 kPa	336.974 kg/m3 and 336.97 kg/m3
380 K, 6684.4 kPa	336.974 kg/m3
380 K, 7975.3 kPa	360.582 kg/m3
380 K, 7975.4 kPa	360.58 kg/m3
380 K, 7975.5 kPa	360.582 kg/m3 [middle of 6 runs]
380 K, 7975.6 kPa	360.58 kg/m3 and 360.581 kg/m3
380 K, 7975.7 kPa	360.586 kg/m3
380 K, 7975.8 kPa	360.584 kg/m3 and 360.583 kg/m3
380 K, 10919 kPa	391.154 kg/m3 [middle of 4 runs]
380 K, 10920 kPa	391.156 kg/m3 and 391.155 kg/m3
380 K, 11880 kPa	398.187 kg/m3 and 398.185 kg/m3
380 K, 11881 kPa	398.189 kg/m3 and 398.186 kg/m3
380 K, 15945 kPa	420.987 kg/m3 and 420.99 kg/m3
380 K, 15946 kPa	420.986 kg/m3
380 K, 19820 kPa	436.807 kg/m3 and 436.806 kg/m3
380 K, 19821 kPa	436.811 kg/m3 and 436.808 kg/m3 and 436.81 kg/m3
380 K, 23098 kPa	447.702 kg/m3 [middle of 5 runs]
380 K, 23099 kPa	447.703 kg/m3 and 447.702 kg/m3
380 K, 23697 kPa	449.488 kg/m3 and 449.487 kg/m3 and 449.489 kg/m3
380 K, 29645 kPa	465.242 kg/m3 and 465.241 kg/m3
380 K, 29646 kPa	465.242 kg/m3 and 465.241 kg/m3
380 K, 34344 kPa	475.596 kg/m3 [middle of 4 runs]
380 K, 34345 kPa	475.597 kg/m3
380.01 K, 954.8 kPa	14.3809 kg/m3
380.01 K, 954.81 kPa	14.381 kg/m3
380.01 K, 3513.7 kPa	73.3411 kg/m3
380.01 K, 5268.9 kPa	264.989 kg/m3
380.01 K, 6684.6 kPa	336.973 kg/m3
380.01 K, 6684.7 kPa	336.971 kg/m3
400 K, 336.43 kPa	4.5554 kg/m3 and 4.5553 kg/m3
400 K, 599.95 kPa	8.2683 kg/m3
400 K, 599.96 kPa	8.2685 kg/m3 and 8.2684 kg/m3
400 K, 956.18 kPa	13.5094 kg/m3
400 K, 957.16 kPa	13.5243 kg/m3
400 K, 957.89 kPa	13.5351 kg/m3
400 K, 959.04 kPa	13.5529 kg/m3
400 K, 962.98 kPa	13.6116 kg/m3
400 K, 1542.1 kPa	22.7724 kg/m3
400 K, 1542.2 kPa	22.7738 kg/m3 and 22.7745 kg/m3
400 K, 1542.3 kPa	22.7764 kg/m3
400 K, 1542.4 kPa	22.7771 kg/m3
400 K, 2380.3 kPa	37.7472 kg/m3 and 37.7486 kg/m3 and 37.7481 kg/m3
400 K, 2380.5 kPa	37.7508 kg/m3 and 37.7503 kg/m3
400 K, 3308.6 kPa	57.6872 kg/m3 [middle of 5 runs]
400 K, 3901.8 kPa	73.2165 kg/m3 [middle of 4 runs]
400 K, 3901.9 kPa	73.2188 kg/m3
400 K, 3902 kPa	73.2191 kg/m3
400 K, 4691.9 kPa	99.4254 kg/m3 and 99.4238 kg/m3 and 99.4251 kg/m3
400 K, 4692 kPa	99.4292 kg/m3 and 99.4262 kg/m3
400 K, 5668.4 kPa	147.912 kg/m3
400 K, 5668.5 kPa	147.917 kg/m3 [middle of 6 runs]
400 K, 5673.1 kPa	148.232 kg/m3
400 K, 5673.2 kPa	148.239 kg/m3 and 148.234 kg/m3 and 148.236 kg/m3
400 K, 5673.3 kPa	148.236 kg/m3
400 K, 5676.5 kPa	148.439 kg/m3 and 148.438 kg/m3
400 K, 5676.6 kPa	148.445 kg/m3 and 148.444 kg/m3 and 148.437 kg/m3
400 K, 5676.7 kPa	148.447 kg/m3 [middle of 8 runs]
400 K, 5676.8 kPa	148.451 kg/m3 [middle of 9 runs]
400 K, 5676.9 kPa	148.458 kg/m3 [middle of 6 runs]
400 K, 5677 kPa	148.462 kg/m3 [middle of 5 runs]
400 K, 5677.1 kPa	148.464 kg/m3 and 148.466 kg/m3
400 K, 5677.2 kPa	148.477 kg/m3 and 148.472 kg/m3
400 K, 5677.4 kPa	148.487 kg/m3 and 148.49 kg/m3
400 K, 5677.9 kPa	148.509 kg/m3
400 K, 5678 kPa	148.518 kg/m3 and 148.516 kg/m3 and 148.517 kg/m3
400 K, 5678.1 kPa	148.519 kg/m3 and 148.526 kg/m3 and 148.518 kg/m3
400 K, 5678.2 kPa	148.528 kg/m3 [middle of 13 runs]
400 K, 5678.3 kPa	148.528 kg/m3 and 148.529 kg/m3
400 K, 5781.6 kPa	155.313 kg/m3 and 155.311 kg/m3
400 K, 5781.7 kPa	155.314 kg/m3 and 155.311 kg/m3
400 K, 6338.3 kPa	196.876 kg/m3 and 196.877 kg/m3
400 K, 6338.4 kPa	196.877 kg/m3 [middle of 5 runs]
400 K, 6338.5 kPa	196.877 kg/m3
400 K, 6630.2 kPa	219.389 kg/m3
400 K, 6630.3 kPa	219.386 kg/m3 and 219.389 kg/m3
400 K, 6630.4 kPa	219.389 kg/m3 [middle of 4 runs]
400 K, 6978.6 kPa	243.19 kg/m3 and 243.192 kg/m3
400 K, 6978.7 kPa	243.193 kg/m3 and 243.189 kg/m3 and 243.196 kg/m3
400 K, 6978.8 kPa	243.19 kg/m3
400 K, 6978.9 kPa	243.193 kg/m3
400 K, 7736.9 kPa	280.444 kg/m3 and 280.447 kg/m3
400 K, 7737 kPa	280.444 kg/m3
400 K, 7737.1 kPa	280.449 kg/m3 and 280.444 kg/m3
400 K, 7737.2 kPa	280.444 kg/m3
400 K, 7737.3 kPa	280.449 kg/m3 and 280.45 kg/m3
400 K, 7912.9 kPa	286.854 kg/m3
400 K, 7913.2 kPa	286.868 kg/m3 and 286.866 kg/m3 and 286.857 kg/m3
400 K, 7913.4 kPa	286.864 kg/m3
400 K, 10112 kPa	336.235 kg/m3 [middle of 5 runs]
